Results taken from patent US11998550B2, “Trametinib prevents mesothelial-mesenchymal transition and ameliorates abdominal adhesion and pulmonary fibrosis formation” (Thomas Jefferson University, priority 2017, dated 2024).

Legend:
[1] = tested on: rat peritoneal mesothelial cells; experiment: TGF-β induced mesothelial/mesenchymal transition (MMT), cell morphology; assay type: cell-based; details: trametinib alone, no TGF-β, five days
Procedure: Isolated mesothelial cells were incubated under control conditions without either TGF-β or trametinib, with TGF-β or trametinib alone, or with both TGF-β and trametinib for five days (FIGS. 1 and 2).
The experiments in this study were approved by the Institutional Animal Care and Use Committee at Thomas Jefferson University, and were performed in accordance with the National Institutes of Health guidelines for the care and handling of laboratory animals. RPMCs were isolated and cultured as described previously. Briefly, Sprague Dawley rats weighing 150 g-250 g, purchased from Jackson Laboratory, were injected intra-peritoneally with 30 ml of 0.25% trypsin/2.21 mM EDTA under Isoflurane anesthesia and were kept on the metal pad warmed to 37° C. for one hour; after which the abdominal fluid was collected and centrifuged at 300 g for 10 minutes. The isolated pelleted cells were re-suspended and cultured in DMEM/F12 medium supplemented with 10% (v/v) FBS at 37° C. in a humidified atmosphere of 5% CO2 in air. The RPMCs, from the fourth to seventh passages (split ratio 1:4), at 90% confluence were used for the experiments. The cells were treated either with 10 ng/ml of TGF-β1 (R&D systems) alone, or with TGF-β1 and the MEK1/2 inhibitor, Trametinib (2 or 5 nM).

[2] = tested on: phospho-MEK1/2, phospho-Erk1/2, FNEDA, αSMA, phospho-Smad2 (linker); experiment: Western analysis of TGF-β1 treated rat peritoneal mesothelial cells; assay type: cell-based; details: Western blot, FIG. 2
Procedure: These insights led us to explore the potential mechanisms of action of trametinib using Western blotting analyses (FIG. 2). […] These increases in gene expression of phosphor-Erk 1/2, FNEDA, αSMA and p-SMAD2 (linker) were blocked by as low a concentration of trametinib as 2 nM (FIG. 2).
The experiments in this study were approved by the Institutional Animal Care and Use Committee at Thomas Jefferson University, and were performed in accordance with the National Institutes of Health guidelines for the care and handling of laboratory animals. RPMCs were isolated and cultured as described previously. […]
RPMCs were lysed in ice-cold modified RIPA buffer with protease inhibitor cocktail (50 mM/L Tris-HCl, 1% NP-40, 0.25% Na-deoxycholate, 150 mM/L NaCl, 1 mM/L EDTA, 1 mmol/L phenylmethyl sulfonyl fluoride, 1 mM/L sodium orthovanadate, 1 mM/L NaF, pH 7.4). Equivalent amounts of homogenate (50 μg/well), determined by Coomassie blue assay, were separated by sodium dodecyl sulfate polyacrylamide gel electrophoresis (SDS-PAGE), transferred to either nitrocellulose or PVDF membranes, and detected by SuperSignal West Femto or Pico chemiluminescence.

Solubility in water = assay type: physicochemical
C57BL/6 mice = experiment: Cecal abrasion model of intra-abdominal adhesion formation, drug by osmotic pump for eight days
Description: Mice were allowed to acclimate in the animal facility for at least one week prior to surgery, given free access to standard chow and water and a 12-h light-dark cycle in standard acrylic cages with wood chip bedding. Animals were randomly assigned into either an experimental group (laparotomy and cecal abrasion) or a control group (laparotomy only).
Briefly, mice underwent induction and maintenance anesthesia with 1-3% isofluorane with supplemental oxygen. After adequate sedation was achieved, mice were weighed and 0.1 mg/kg subcutaneous Buprenex (Hospira, Inc., Lake Forest, IL) was administered to ensure analgesia. The ventral surface was clipped along the midline and the skin was sterilized with betadine. A 2 cm midline incision was made subxiphoid to avoid injuring the bladder and the cecum was identified and externalized. The anti-mesenteric side of the cecum was gently swiped 30 times with gauze then returned to the abdomen. The incision was closed with a double layer of sutures with 2-0 silk [13]. […] In the drug escalation study, laparotomy and cecal abrasion were carried out as above as well as sub-dermal placement of the osmotic pumps.
Groups of 5 animals were given 0.1, 1.0 or 3.0 mg/kg animal weight of drug/day via osmotic pumps (Alzet Osmotic Pump 1002, Cupertino, CA) for eight days prior to sacrifice. The volume delivered/day was 6 ul of drug. Control mice underwent induction with anesthesia and laparotomy only. In addition, 5 animals underwent laparotomy and placement of the osmotic pumps which were filled with “drug vehicle (DMSO)” alone i.e., no drug. After 8 days of drug treatment, mice were euthanized under isofluorane anesthesia followed by cervical dislocation. Adhesions were examined by two independent practitioners. […]
Intestinal tissue was placed in Tissue-Tek O.C.T. Compound (Sakura Finetek, Torrance, CA) and immediately frozen in liquid nitrogen. […] Slides were mounted with DAPI Fluoromount-G (Southern Biotech) and fluorescence images were taken with a Zeiss epi-fluorescence microscope. […]

[3] = tested on: rat peritoneal mesothelial cells; details: previous finding, ref [10]; cited from earlier work

| Compound | effect of drug alone on cell appearance / toxicity [1] | concentration blocking TGF-β induced increases of phospho-Erk1/2, FNEDA, αSMA and p-SMAD2 (linker) [2] [nM] | solubility in water (Solubility in water) | average decrease in weight (C57BL/6 mice; 1.0 mg dose, eight day period of drug delivery) [%] | average increase in weight (C57BL/6 mice; 3.0 mg dose, eight day period of drug delivery) [%] | wound closure and healing at laparotomy site (C57BL/6 mice; highest drug dose (3 mg/kg/day)) | effect on rat peritoneal mesothelial/mesenchymal transition induced by TGF-β [3] |
| --- | --- | --- | --- | --- | --- | --- | --- |
| CC(=O)Nc1cccc(-n2c(=O)n(C3CC3)c(=O)c3c(Nc4ccc(I)cc4F)n(C)c(=O)c(C)c32)c1 [trametinib] | no effect and no apparent toxic effects | ≤ 2 | minimally soluble in water | 2.2 | 0.5 | no effect on wound closure and healing |  |
| N#CC(=C(/N)Sc1ccccc1N)/C(C#N)=C(\N)Sc1ccccc1N [U0126] |  |  |  |  |  |  | blocked |
